Source: patent US20220362396A1, “AMINO-PYRAZINECARBOXAMIDE COMPOUNDS, CONJUGATES, AND USES THEREOF” (Silverback Therapeutics, Inc., priority 2018, published 2022)

Tests used:
[1] = test system: TGFβ/SMAD Signaling Pathway SBE reporter cell line; assay: TGFβ reporter assay, in vitro small molecule screening (luciferase); format: cell-based; conditions: TGFβ stimulation, luminescence
Outline: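 SBE luciferase reporter cells (~0.5×10^6 cells/mL) preincubated with compound 5-6 h at 37 °C in 0.5% FBS MEM, then stimulated with TGFβ (12 ng/mL stock) for 18 h. Luminescence read after luciferase substrate; EC50 from curve fits.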

TGFBR2 = target: T1, TGFBR2 (Homo sapiens, UniProt P37173); assay: TGFBR2 RBC assay (enzyme inhibition assay, Reaction Biology Corp.); format: biochemical
T1 construct: purchased Reaction Biology Corp
Experimental: Compounds of the disclosure were also assayed by Reaction Biology Corp. using the TGFBR2 RBC assay (enzyme inhibition assay). […] NT refers to not tested.

T1 sequence (P37173 23-567): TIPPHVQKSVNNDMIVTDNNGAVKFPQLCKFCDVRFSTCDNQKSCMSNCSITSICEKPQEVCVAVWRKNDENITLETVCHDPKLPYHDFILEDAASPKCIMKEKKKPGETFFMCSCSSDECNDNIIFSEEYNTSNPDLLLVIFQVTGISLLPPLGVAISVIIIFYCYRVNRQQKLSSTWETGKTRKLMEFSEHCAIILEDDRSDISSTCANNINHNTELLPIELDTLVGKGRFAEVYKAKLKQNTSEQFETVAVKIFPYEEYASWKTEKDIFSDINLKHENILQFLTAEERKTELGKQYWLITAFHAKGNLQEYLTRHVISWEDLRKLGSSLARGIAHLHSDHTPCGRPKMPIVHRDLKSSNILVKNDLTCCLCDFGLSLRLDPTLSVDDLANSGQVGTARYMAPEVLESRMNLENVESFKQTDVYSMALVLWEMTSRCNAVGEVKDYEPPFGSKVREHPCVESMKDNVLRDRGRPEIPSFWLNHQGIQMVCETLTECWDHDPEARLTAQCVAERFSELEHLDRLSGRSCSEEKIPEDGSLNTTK

SMILES | EC50 [1] | IC50 (TGFBR2)
CC(C)(C)OC(=O)NC1CCc2cc(-c3cnc(N)c(C(=O)Nc4cnccc4N4CCOCC4)n3)ccc21 (stereo not drawn) [Compound 215] | 100 to 1000 nM | < 50 nM
NCCc1ccc(-c2cnc(N)c(C(=O)Nc3cnccc3-n3cncn3)n2)cc1 [Compound 187] | 100 to 1000 nM | < 50 nM
COc1ccc(-c2cnc(N)c(C(=O)Nc3cnccc3N3CCOCC3)n2)c(OC)c1 [Compound 157] | 100 to 1000 nM | 100 to 1000 nM
Nc1ncc(-c2ccc(O[C@H]3CCCN(C(=O)OCc4ccccc4)C3)cc2)nc1C(=O)Nc1cnccc1N1CCOCC1 [Compound 165] | 100 to 1000 nM | 100 to 1000 nM
Nc1ncc(-c2ccc(CCNC(=O)OCc3ccccc3)cc2)nc1C(=O)Nc1cnccc1N1CCSCC1 [Compound 36] | 50 to 100 nM | 100 to 1000 nM
N#Cc1ccccc1-c1ccncc1NC(=O)c1nc(-c2ccc(CCNC(=O)OCc3ccccc3)cc2)cnc1N [Compound 31] | > 1000 nM | > 1000 nM
Nc1ncc(-c2ccc(S(=O)(=O)N3CCNCC3)cc2)nc1C(=O)Nc1cnccc1N1CCOCC1 [Compound 62] | 50 to 100 nM | 100 to 1000 nM
COCCCNc1ccncc1NC(=O)c1nc(-c2ccc(CCN)cc2)cnc1N [Compound 97] | > 1000 nM | > 1000 nM
Nc1ncc(-c2ccc(CCCCNC(=O)OCc3ccccc3)cc2)nc1C(=O)Nc1cnccc1N1CCOCC1 [Compound 74] | 100 to 1000 nM | 50 to 100 nM
COCCN(C)c1ccncc1NC(=O)c1nc(-c2ccc(CCN)cc2)cnc1N [Compound 102] | 100 to 1000 nM | 100 to 1000 nM
Cc1nccn1-c1ccncc1NC(=O)c1nc(-c2ccc(CCNC(=O)OCc3ccccc3)cc2)cnc1N [Compound 3.1, Benzyl (4-(5-amino-6-((4-(2-methyl-1H-imidazol-1-yl)pyridin-3-yl)carbamoyl)pyrazin-2-yl)phenethyl)carbamate] | 100 to 1000 nM | < 50 nM
CC(C)(C)OC(=O)NC1Cc2ccc(-c3cnc(N)c(C(=O)Nc4cnccc4N4CCOCC4)n3)cc2C1 (stereo not drawn) [Compound 212] | 100 to 1000 nM | < 50 nM
COc1ccccc1-c1cnc(N)c(C(=O)Nc2cnccc2N2CCOCC2)n1 [Compound 150] | > 1000 nM | 100 to 1000 nM
Nc1ncc(-c2ccc(O[C@H]3CCCNC3)cc2)nc1C(=O)Nc1cnccc1N1CCOCC1 [Compound 169] | 50 to 100 nM | < 50 nM
Nc1ncc(-c2ccc3c(c2)CCC3O)nc1C(=O)Nc1cnccc1N1CCOCC1 (stereo not drawn) [Compound 247] | 50 to 100 nM | < 50 nM
CC(C)(C)OC(=O)N1CCN(Cc2ccc(-c3cnc(N)c(C(=O)Nc4cnccc4N4CCOCC4)n3)cc2)C(=O)C1 [Compound 85] | < 50 nM | < 50 nM
Nc1ncc(-c2ccc(CCNC(=O)OCc3ccccc3)cc2)nc1C(=O)Nc1cnccc1-c1ccccc1 [Compound 121] | 100 to 1000 nM | < 50 nM
Nc1ncc(-c2ccc3c(c2)CCC(O)C3)nc1C(=O)Nc1cnccc1N1CCOCC1 (stereo not drawn) [Compound 249] | 100 to 1000 nM | < 50 nM
Nc1ncc(-c2ccc(CCNC(=O)OCc3ccccc3)cc2)nc1C(=O)Nc1cnc2ccccc2c1N1CCOCC1 [Compound 126] | 100 to 1000 nM | > 1000 nM
NCCc1ccc(-c2cnc(N)c(C(=O)Nc3cncc(-c4cccc(N)c4)c3)n2)cc1 [Compound 149] | > 1000 nM | 50 to 100 nM
COC(=O)c1cc(-c2cnc(NC(=O)OC(C)(C)C)c(C(=O)Nc3cnccc3N3CCOCC3)n2)ccc1OCCCNC(=O)OC(C)(C)C [Compound 242] | > 1000 nM | 50 to 100 nM
Nc1ncc(-c2ccc(N3CC[C@@H](N)C3)cc2)nc1C(=O)Nc1cnccc1N1CCOCC1 [Compound 278] | 50 to 100 nM | < 50 nM
CN(CCN)c1ccc(-c2cnc(N)c(C(=O)Nc3cnccc3N3CCOCC3)n2)cc1 [Compound 272] | 50 to 100 nM | < 50 nM
COC(=O)c1cc(-c2cnc(N)c(C(=O)Nc3cnccc3N3CCOCC3)n2)ccc1OCCCNC(=O)OC(C)(C)C [Compound 241] | > 1000 nM | 100 to 1000 nM
Nc1ncc(-c2cccc3ccccc23)nc1C(=O)Nc1cnccc1N1CCOCC1 [Compound 253] | > 1000 nM | 100 to 1000 nM
CC(C)c1nccn1-c1ccncc1NC(=O)c1nc(-c2ccc(CCN)cc2)cnc1N [Compound 142] | 100 to 1000 nM | < 50 nM

SMILES | EC50 [1] | IC50 (TGFBR2)
NCCc1ccc(-c2cnc(N)c(C(=O)Nc3cnccc3-n3ccnc3)n2)cc1 [Compound 136] | > 1000 nM | < 50 nM
Nc1ncc(-c2ccc(O[C@@H]3CCCN(C(=O)OCc4ccccc4)C3)cc2)nc1C(=O)Nc1cnccc1N1CCOCC1 [Compound 163] | 100 to 1000 nM | 100 to 1000 nM
Nc1ncc(-c2ccc(CCNC(=O)OCc3ccccc3)cc2F)nc1C(=O)Nc1cnccc1N1CCOCC1 [Compound 50] | 100 to 1000 nM | < 50 nM
Nc1ncc(-c2ccc(CCNC(=O)OCc3ccccc3)cc2)nc1C(=O)Nc1cnccc1-c1ccc(F)cc1 [Compound 20] | > 1000 nM | > 1000 nM
COc1ccc(OC)c(-c2cnc(N)c(C(=O)Nc3cnccc3N3CCOCC3)n2)c1 [Compound 159] | 100 to 1000 nM | 100 to 1000 nM
Nc1ncc(-c2ccc(CCCNC(=O)OCc3ccccc3)cc2)nc1C(=O)Nc1cnccc1N1CCOCC1 [Compound 1.2] | 100 to 1000 nM | < 50 nM
NCCc1ccc(-c2cnc(N)c(C(=O)Nc3cnc4ccccc4c3N3CCOCC3)n2)cc1 [Compound 130] | > 1000 nM | > 1000 nM
CC(C)(C)OC(=O)NCC1CCc2cc(-c3cnc(N)c(C(=O)Nc4cnccc4N4CCOCC4)n3)ccc2O1 (stereo not drawn) [Compound 233] | 100 to 1000 nM | < 50 nM
Nc1ncc(-c2ccc(N3CC[C@H](N)C3)cc2)nc1C(=O)Nc1cnccc1N1CCOCC1 [Compound 277] | 50 to 100 nM | < 50 nM
CC(C)(C)OC(=O)N1CC(Oc2ccc(-c3cnc(N)c(C(=O)Nc4cnccc4N4CCOCC4)n3)cc2)C1 [Compound 218] | 50 to 100 nM | < 50 nM
Nc1ncc(-c2ccc(N3CCCC3)cc2)nc1C(=O)Nc1cnccc1N1CCOCC1 [Compound 262] | 100 to 1000 nM | < 50 nM
Nc1ncc(-c2ccc3c(c2)CC(N)CN3)nc1C(=O)Nc1cnccc1N1CCOCC1 (stereo not drawn) [Compound 239] | 100 to 1000 nM | 50 to 100 nM
NCc1cccc(-c2cnc(N)c(C(=O)Nc3cnccc3N3CCOCC3)n2)c1 [Compound 175] | 100 to 1000 nM | 100 to 1000 nM
Nc1ncc(-c2ccc3c(c2)CC(O)CC3)nc1C(=O)Nc1cnccc1N1CCOCC1 (stereo not drawn) [Compound 246] | 100 to 1000 nM | < 50 nM
NCC1CCc2cc(-c3cnc(N)c(C(=O)Nc4cnccc4N4CCOCC4)n3)ccc2O1 (stereo not drawn) [Compound 237] | 50 to 100 nM | < 50 nM
CC(C)(C)OC(=O)N1CCN(Cc2ccc(-c3cnc(N)c(C(=O)Nc4cnccc4N4CCOCC4)n3)cc2)CC1 [Compound 89] | 50 to 100 nM | < 50 nM
Nc1ncc(-c2cccc(Cl)c2)nc1C(=O)Nc1cnccc1N1CCOCC1 [Compound 152] | 100 to 1000 nM | < 50 nM
NCCCCc1ccc(-c2cnc(N)c(C(=O)Nc3cnccc3N3CCOCC3)n2)cc1 [Compound 73] | 50 to 100 nM | < 50 nM
Nc1ncc(-c2ccc(CCNC(=O)OCc3ccccc3)cc2)nc1C(=O)Nc1cnccc1-n1ccnn1 [Compound 120] | > 1000 nM | < 50 nM
Nc1ncc(-c2ccc(CCNC(=O)OCc3ccccc3)cc2)nc1C(=O)Nc1cnc(F)cc1N1CCOCC1 [Compound 236] | > 1000 nM | < 50 nM
Nc1ncc(-c2ccc(C(=O)NCCNC(=O)OCc3ccccc3)cc2)nc1C(=O)Nc1cnccc1N1CCOCC1 [Compound 76] | 100 to 1000 nM | < 50 nM
CC(C)(C)OC(=O)N1CCc2cc(-c3cnc(N)c(C(=O)Nc4cnccc4N4CCOCC4)n3)ccc2C1 [Compound 78] | < 50 nM | < 50 nM
Nc1ncc(-c2ccc(O[C@H]3C[C@@H](N)C3)cc2)nc1C(=O)Nc1cnccc1N1CCOCC1 [Compound 224] | > 1000 nM | < 50 nM
CC(C)(C)OC(=O)N1CCN(C(=O)c2ccc(-c3cnc(N)c(C(=O)Nc4cnccc4N4CCOCC4)n3)cc2)CC1 [Compound 81] | 50 to 100 nM | 100 to 1000 nM
COC(=O)[C@H](N)CCOc1ccc(-c2cnc(N)c(C(=O)Nc3cnccc3N3CCOCC3)n2)cc1 [Compound 269] | 100 to 1000 nM | < 50 nM
